Measured values reported in patent US10227323B2, “Glucosylceramide synthase inhibitors for the treatment of diseases” (BIOMARIN PHARMACEUTICAL INC., priority 2013, dated 2019).

Target: T1, GCS (Canis lupus familiaris, UniProt A0A8I3MXG6)
T1 sequence (A0A8I3MXG6 1-394): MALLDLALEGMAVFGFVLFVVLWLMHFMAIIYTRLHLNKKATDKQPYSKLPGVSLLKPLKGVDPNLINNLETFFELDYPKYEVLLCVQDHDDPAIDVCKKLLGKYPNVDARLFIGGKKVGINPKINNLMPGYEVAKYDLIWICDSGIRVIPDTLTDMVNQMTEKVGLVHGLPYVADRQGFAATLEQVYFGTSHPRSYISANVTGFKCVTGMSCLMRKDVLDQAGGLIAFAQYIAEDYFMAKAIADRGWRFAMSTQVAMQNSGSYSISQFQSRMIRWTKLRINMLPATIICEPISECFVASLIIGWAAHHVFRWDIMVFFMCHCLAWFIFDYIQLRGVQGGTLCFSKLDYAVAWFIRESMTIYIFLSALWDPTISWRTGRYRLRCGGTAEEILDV
Experiment: Assay 1: GCS Enzymatic Assay (MDCK cell lysate, C6-NBD-Ceramide, LC/MS)
Assay type: biochemical, canine
Conditions: Table 1, MDCK cell lysate; for IC50: read-out: IC50 (nM) generated from Assay 1; for % inhibition generated from Assay 1: values marked *
Procedure: This assay was modified based on the study by Larsen et al. (J. Lipid Res. 2011, 53, 282). Madin-Darby canine kidney (MDCK) cell lysate was prepared using M-PER Mammalian Protein Extraction Reagent (Thermal Scientific) in the presence of a protease inhibitor cocktail (Roche). Protein concentration was determined using BCA assay kit (Pierce). Sixty micrograms of MDCK cell lysate was incubated with various concentrations of a compound described herein from 0.001 μM-10 μM, respectively, in 100 mM Tris buffer (pH 7.5) containing 10 mM MgCl2, 1 mM dithiothreitol, 1 mM EGTA, 2 mM NAD, 100 μM UDP-glucose, 10 μM C6-NBD-Ceramide (Matreya LLC, Pleasant Gap, Pa.), 35 μM dioleoylphosphatidylcholine and 5 μM sulfatide (Sigma) in a final reaction volume of 100 μL at 37° C. for 1 hour. 0.1% DMSO was used as mock treatment or control. The reaction was terminated by adding 100 μL acetonitrile solution and subjected to LC/MS analysis.
The quantitative analysis of NBD-Ceramide and glucosylceramide was performed on a Shimadzu ultra-fast liquid chromatography (Shimadzu, Japan) coupled with API 4000 triple quadrupole mass spectrometer (Applied Biosystems, Concord, Ontario, Canada). Sample separation was conducted on a Waters Xbridge™ BEH130 C18, 100 mm×4.6 mm i.d, 3.5 μm (Milford, Mass., USA). The mobile phase consisted of water and acetonitrile supplemented with 0.1% formic acid (v/v). The flow rate was 1.0 mL/min. The initial mobile phase was 20% acetonitrile and was ramped in a linear fashion to 50% acetonitrile in 0.4 min. From 0.4 to 1.5 min, the gradient was ramped to 98% acetonitrile, and then was held at […] until 8.0 min. Acetonitrile was reset to 20% in 1.5 min, and maintained until 10.0 min. The total run time was 10.0 min. The MS/MS detection was performed in ESI positive mode. The mass transition of NBD-Ceramide was m/z 576.36→558.40 under the collision energy of 15 V, and the mass transition of glucosylceramide was m/z 738.35→558.40 under 21V collision energy. The cell lysate was diluted with equal volume of acetonitrile. Aliquots of 50 μL diluted samples were added to 1.5 mL tubes, and 100 μL of acetonitrile containing internal standard (100 ng/mL tolbutamide) were added for protein precipitation. The mixture were vortexed and then centrifuged at 13000 rpm for 10 min. 70 μL of supernatant were mixed with 140 μL of H2O and the final solution were injected for LC/MS/MS analysis and IC50's and/or percent inhibitions calculated.

SMILES	IC50	% inhibition generated from Assay 1
O=C(N[C@H](CN1CCCC1)[C@H](O)c1ccc2c(c1)OCCO2)C(F)(F)c1cc2cc(C(F)(F)F)ccc2o1 [Compound 30, N-((1R,2R)-1-(2,3-dihydrobenzo[b][1,4]dioxin-6-yl)-1-hydroxy-3-(pyrrolidin-1-yl)propan-2-yl)-2,2-difluoro-2-(5-(trifluoromethyl)benzofuran-2-yl)acetamide]	< 50 nM	
O=C(N[C@H](CN1CCCC1)[C@H](O)c1ccc2c(c1)OCCO2)C(F)(F)c1cc2cc(Br)ccc2o1 [Compound 31, 2-(5-bromobenzofuran-2-yl)-N-((1R,2R)-1-(2,3-dihydrobenzo[b][1,4]dioxin-6-yl)-1-hydroxy-3-(pyrrolidin-1-yl)propan-2-yl)-2,2-difluoroacetamide]	< 50 nM	
O=C(N[C@H](CN1CCC1)[C@@H](O)c1ccc2c(c1)OCCO2)C(F)(F)c1cc2cc(Cl)ccc2o1 [Compound 32C, N-((1S,2R)-3-(azetidin-1-yl)-1-(2,3-dihydrobenzo[b][1,4]dioxin-6-yl)-1-hydroxypropan-2-yl)-2-(5-chlorobenzofuran-2-yl)-2,2-difluoroacetamide]		B* (the compound had a % inhibition of greater than or equal to about 3% but less than about 50%)
O=C(N[C@H](CN1CCC1)[C@H](O)c1ccc2c(c1)OCCO2)C(F)(F)c1cc2cc(Cl)ccc2o1 [Compound 32D, N-((1R,2R)-3-(azetidin-1-yl)-1-(2,3-dihydrobenzo[b][1,4]dioxin-6-yl)-1-hydroxypropan-2-yl)-2-(5-chlorobenzofuran-2-yl)-2,2-difluoroacetamide]	< 50 nM	
O=C(N[C@H](CN1CCCC1)[C@H](O)c1cc2c(cc1F)OCCO2)C(F)(F)c1cc2cc(Cl)ccc2o1 [Compound 33, 2-(5-chlorobenzofuran-2-yl)-2,2-difluoro-N-((1R,2R)-1-(7-fluoro-2,3-dihydrobenzo[b][1,4]dioxin-6-yl)-1-hydroxy-3-(pyrrolidin-1-yl)propan-2-yl)acetamide]		B* (the compound had a % inhibition of greater than or equal to about 3% but less than about 50%)
O=C(N[C@H](CN1CCCC1)[C@@H](O)c1cc2c(cc1F)OCCO2)C(F)(F)c1cc2cc(Cl)ccc2o1 [Compound 33A, 2-(5-chlorobenzofuran-2-yl)-2,2-difluoro-N-((1S,2R)-1-(7-fluoro-2,3-dihydrobenzo[b][1,4]dioxin-6-yl)-1-hydroxy-3-(pyrrolidin-1-yl)propan-2-yl)acetamide]		B* (the compound had a % inhibition of greater than or equal to about 3% but less than about 50%)
O=C(N[C@H](CN1CCCC1)[C@H](O)c1ccc2ncccc2c1)C(F)(F)c1cc2cc(Cl)ccc2o1 [Compound 34, 2-(5-chlorobenzofuran-2-yl)-2,2-difluoro-N-((1R,2R)-1-hydroxy-3-(pyrrolidin-1-yl)-1-(quinolin-6-yl)propan-2-yl)acetamide]		A* (the compound had a % inhibition of a percent inhibition of greater than or equal to about 50%)
O=C(N[C@H](CN1CCCC1)[C@@H](O)c1ccc2ncccc2c1)C(F)(F)c1cc2cc(Cl)ccc2o1 [Compound 34G, 2-(5-chlorobenzofuran-2-yl)-2,2-difluoro-N-((1S,2R)-1-hydroxy-3-(pyrrolidin-1-yl)-1-(quinolin-6-yl)propan-2-yl)acetamide]		B* (the compound had a % inhibition of greater than or equal to about 3% but less than about 50%)
CC1(C)CCN(C[C@@H](NC(=O)C(F)(F)c2cc3cc(Cl)ccc3o2)[C@@H](O)c2ccc3c(c2)OCCO3)C1 [Compound 36C, 2-(5-chlorobenzofuran-2-yl)-N-((1S,2R)-1-(2,3-dihydrobenzo[b][1,4]dioxin-6-yl)-3-(3,3-dimethylpyrrolidin-1-yl)-1-hydroxypropan-2-yl)-2,2-difluoroacetamide]		B* (the compound had a % inhibition of greater than or equal to about 3% but less than about 50%)
O=C(N[C@H](CN1CCCC1)[C@H](O)c1ccc(OC(F)(F)F)cc1)C(F)(F)c1cc2cc(Cl)ccc2o1 [Compound 37, 2-(5-chlorobenzofuran-2-yl)-2,2-difluoro-N-((1R,2R)-1-hydroxy-3-(pyrrolidin-1-yl)-1-(4-(trifluoromethoxy)phenyl)propan-2-yl)acetamide]		B* (the compound had a % inhibition of greater than or equal to about 3% but less than about 50%)
O=C(N[C@H](CN1CCCC1)[C@@H](O)c1ccc(OC(F)(F)F)cc1)C(F)(F)c1cc2cc(Cl)ccc2o1 [Compound 37G, 2-(5-chlorobenzofuran-2-yl)-2,2-difluoro-N-((1S,2R)-1-hydroxy-3-(pyrrolidin-1-yl)-1-(4-(trifluoromethoxy)phenyl)propan-2-yl)acetamide]		B* (the compound had a % inhibition of greater than or equal to about 3% but less than about 50%)
O=C(N[C@H](CN1CC[C@H](F)C1)[C@H](O)c1ccc2c(c1)OCCO2)C(F)(F)c1cc2cc(Cl)ccc2o1 [Compound 38, 2-(5-chlorobenzofuran-2-yl)-N-((1R,2R)-1-(2,3-dihydrobenzo[b][1,4]dioxin-6-yl)-3-((S)-3-fluoropyrrolidin-1-yl)-1-hydroxypropan-2-yl)-2,2-difluoroacetamide]		B* (the compound had a % inhibition of greater than or equal to about 3% but less than about 50%)
C[C@@H]1CCCN1C[C@@H](NC(=O)C(F)(F)c1cc2cc(Cl)ccc2o1)[C@H](O)c1ccc2c(c1)OCCO2 [Compound 39, 2-(5-chlorobenzofuran-2-yl)-N-((1R,2R)-1-(2,3-dihydrobenzo[b][1,4]dioxin-6-yl)-1-hydroxy-3-((1R)-2-methylpyrrolidin-1-yl)propan-2-yl)-2,2-difluoroacetamide]	< 50 nM	
C[C@H]1CCCN1C[C@@H](NC(=O)C(F)(F)c1cc2cc(Cl)ccc2o1)[C@H](O)c1ccc2c(c1)OCCO2 [Compound 40, 2-(5-chlorobenzofuran-2-yl)-N-((1R,2R)-1-(2,3-dihydrobenzo[b][1,4]dioxin-6-yl)-1-hydroxy-3-((S)-2-methylpyrrolidin-1-yl)propan-2-yl)-2,2-difluoroacetamide]	< 50 nM	
O=C(N[C@H](CN1CCC(F)(F)C1)[C@H](O)c1ccc2c(c1)OCCO2)C(F)(F)c1cc2cc(Cl)ccc2o1 [Compound 41, 2-(5-chlorobenzofuran-2-yl)-N-((1R,2R)-3-(3,3-difluoropyrrolidin-1-yl)-1-(2,3-dihydrobenzo[b][1,4]dioxin-6-yl)-1-hydroxypropan-2-yl)-2,2-difluoroacetamide]		B* (the compound had a % inhibition of greater than or equal to about 3% but less than about 50%)
O=C(N[C@H](CN1CCCC1)[C@H](O)c1ccc(OC2CC2)c(Cl)c1)C(F)(F)c1cc2cc(Cl)ccc2o1 [Compound 44, N-((1R,2R)-1-(3-chloro-4-cyclopropoxyphenyl)-1-hydroxy-3-(pyrrolidin-1-yl)propan-2-yl)-2-(5-chlorobenzofuran-2-yl)-2,2-difluoroacetamide]	< 50 nM	
O=C(N[C@H](CN1CCCC1)[C@@H](O)c1ccc(OC2CC2)c(Cl)c1)C(F)(F)c1cc2cc(Cl)ccc2o1 [Compound 44H, N-((1S,2R)-1-(3-chloro-4-cyclopropoxyphenyl)-1-hydroxy-3-(pyrrolidin-1-yl)propan-2-yl)-2-(5-chlorobenzofuran-2-yl)-2,2-difluoroacetamide]		B* (the compound had a % inhibition of greater than or equal to about 3% but less than about 50%)
